Measured values: patent publication US20210228497A1, “New Medical Devices, Delivery Vehicles and Manufacturing Thereof” (Remy Biosciences, Inc., priority 2018, published 2021)

Assay: Saturation concentration of CBD in adhesive matrix (turbidity / flux plateau)
Assay type: physicochemical

In the case of `C=C(C)[C@@H]1CCC(C)=C[C@H]1c1c(O)cc(CCCCC)cc1O` [CBD, cannabidiol], the “Saturation concentration of CBD in acrylate adhesive Durotak 87-2287” value (Durotak 87-2287 adhesive matrix) is reported as 30% and the “Saturation concentration of CBD in PIB adhesive” value (un-tackified PIB adhesive matrix) is reported as 12%.
